Assay results: patent US12610947B2, “Tobacco axillary bud growth inhibitors and methods of inhibiting growth of tobacco axillary buds” (Drexel Chemical Company, priority 2020, dated 2026)

Experiments:
tobacco = experiment: Example 4 (Farm A and Farm B): phytotoxicity on a scale of 0 to 5; details: in vivo
Protocol: (§1) A fourth study was conducted simultaneously by two separate farms (designated Farm A and Farm B) to further assess the effectiveness of the various treatments including under varying conditions.
The overall study was designed in random blocks. The treatments utilized were Biosucker, Bioantak (37 DOT), Antak-68.5, Beloukha, Sharpen 33%, and a control treatment that was untreated. On each farm, each test plot was formed by a single line of 20 plants. Each treatment was applied to three separate plots on each farm. […] The first application was applied when the first axillary shoots were observed. Additional applications were applied when the new axillary shoots were observed. Shoots longer than 3 cm were manually removed at the time of each application. The applications were performed using a manual backpack sprayer, spraying at a low pressure above the plant toward the stalk so that the composition ran down the stalk, contacting the leaf axils. Approximately 20 milliliters of composition were applied to each plant. The phytotoxicity of the treatment compositions was assessed and recorded on a scale of 0 to 5 based on visible symptoms. The number and size of the axil shoots was recorded every 6 to 8 days following the initial treatment application. […] An estimated average length of shoots in each plot could then be calculated according to the number of shoots assigned to each level. […]

[1] = tested on: axillary shoots of TH241 tobacco; experiment: Example 3 plot study: axillary shoot length and effectiveness vs non-treated control; format: in vivo; details: for Axillary Shoot Length Results: level assigned by shoot length; for Axillary Shoot Length Results / Effectiveness Results: dosage and applications per Table 8; for Effectiveness Results: compared to the non-treated control group; for Effectiveness: compared to non-treated control
Protocol: A third study was conducted comparing the effects of various treatment compositions on TH241 tobacco. The study was designed in random blocks. Each test plot was formed by two rows of ten tobacco plants. Each treatment was applied to three separate plots. […] The first application was performed when the first axillary shoots were observed. Additional applications were performed when new axillary shoots were observed. Shoots longer than 3 cm were manually removed at the time of each application. The applications were performed using a manual backpack sprayer, spraying at a low pressure above the plant toward the stalk so that the composition ran down the stalk, contacting the leaf axils. Approximately 13 to 26 milliliters of composition were applied to each plant. The phytotoxicity of the treatment compositions was assessed and recorded on a scale of 0 to 5 based on visible symptoms. The number and size of the axil shoots was recorded every 7 to 14 days following the initial treatment application. Axillary shoots were assigned a level according to their length. Shoots less than 3 cm in length were assigned to level 1. Shoots between 3 and 15 cm were assigned to level 2. Shoots between 15 and 30 cm were assigned to level 3. Shoots between 30 and 45 cm were assigned to level 4. Shoots between 45 and 60 cm were assigned to level 5. And shoots greater than 60 cm were assigned to level 6. An estimated average length of shoots in each plot could then be calculated according to the number of shoots assigned to each level. […] For this reason, treatments 1, 3, 4, and 5 were applied three times; treatments 2, 6, and 7 were applied twice; and treatments 8 and 9 were applied only once. The effectiveness of each treatment method was calculated as compared to the non-treated control group.

TH241 tobacco = experiment: Example 3 plot study: phytotoxicity on a scale of 0 to 5; format: in vivo; details: for Phytotoxicity: scale of 0 to 5
Protocol: A third study was conducted comparing the effects of various treatment compositions on TH241 tobacco. The study was designed in random blocks. Each test plot was formed by two rows of ten tobacco plants. Each treatment was applied to three separate plots. […] The first application was performed when the first axillary shoots were observed. Additional applications were performed when new axillary shoots were observed. Shoots longer than 3 cm were manually removed at the time of each application. The applications were performed using a manual backpack sprayer, spraying at a low pressure above the plant toward the stalk so that the composition ran down the stalk, contacting the leaf axils. Approximately 13 to 26 milliliters of composition were applied to each plant. The phytotoxicity of the treatment compositions was assessed and recorded on a scale of 0 to 5 based on visible symptoms. The number and size of the axil shoots was recorded every 7 to 14 days following the initial treatment application. Axillary shoots were assigned a level according to their length. Shoots less than 3 cm in length were assigned to level 1. Shoots between 3 and 15 cm were assigned to level 2. Shoots between 15 and 30 cm were assigned to level 3. Shoots between 30 and 45 cm were assigned to level 4. Shoots between 45 and 60 cm were assigned to level 5. And shoots greater than 60 cm were assigned to level 6. An estimated average length of shoots in each plot could then be calculated according to the number of shoots assigned to each level.
Phytotoxicity was assessed 9 days and 26 days after the first application of each treatment. […] Only mild symptoms of phytotoxicity were observed on the remaining plants. […] The phytotoxicity was likely more apparent due to the fact that by day 26, two pelargonic acid treatments had already been performed. […] No further evaluations were carried out.

[2] = tested on: axillary shoots of tobacco; experiment: Example 4 (Farm A and Farm B): axillary shoot length, effectiveness vs non-treated control, effective period; format: in vivo; details: Farm A, before second application
Protocol: as §1
The overall study was designed in random blocks. The treatments utilized were Biosucker, Bioantak (37 DOT), Antak-68.5, Beloukha, Sharpen 33%, and a control treatment that was untreated. On each farm, each test plot was formed by a single line of 20 plants. Each treatment was applied to three separate plots on each farm. […] The first application was applied when the first axillary shoots were observed. Additional applications were applied when the new axillary shoots were observed. Shoots longer than 3 cm were manually removed at the time of each application. […] The phytotoxicity of the treatment compositions was assessed and recorded on a scale of 0 to 5 based on visible symptoms. The number and size of the axil shoots was recorded every 6 to 8 days following the initial treatment application. […] An estimated average length of shoots in each plot could then be calculated according to the number of shoots assigned to each level.
The results of the length of axillary shoots measured at Farm A and Farm B are shown in Table 15 and Table 16, respectively. […]
The effectiveness of each treatment method and each farm was calculated as compared to the non-treated control group.

## CCCCCCCCC(=O)O [Pelargonic acid, pelargonic acid]
tobacco
  phytotoxicity symptoms: highest levels of burns and deformation
[1]; 5-Aug, D + 19 days
  Axillary Shoot Length Results: 1.3 Cd
[1]; 12-Aug, D + 26 days
  Axillary Shoot Length Results: 2.6 C
[1]; 21-Aug, D + 35 days
  Axillary Shoot Length Results: 1.2 Abc
[1]; 26-Jul, D + 9 days
  Axillary Shoot Length Results: 1.2 C
[1]; 29-Aug, D + 43 days
  Axillary Shoot Length Results: 2.3 bcde
[1]; Aug 5, D + 19 days
  Effectiveness Results: 61%
[1]; Aug 12, D + 26 days
  Effectiveness Results: 37%
[1]; Aug 21, D + 35 days
  Effectiveness Results: 80%
[1]; Aug 29, D + 43 days
  Effectiveness Results: 61%
[1]; July 26, D + 9 days
  Effectiveness Results: 39%
[1]; Oct. 10, D + 85 days
  Effectiveness: 8%
  Axillary Shoot Length Results: 5.5 B
[1]; Sept. 11, D + 56 days
  Effectiveness Results: 35%
  Axillary Shoot Length Results: 3.9 C
[1]; Sept. 24, D + 69 days
  Effectiveness Results: 16%
  Axillary Shoot Length Results: 5.1 C
[1]; Sept. 30, D + 75 days
  Effectiveness: 9%
  Axillary Shoot Length Results: 5.4 B
[1]; after only 9 days
  shoot length: ~3 cm
TH241 tobacco; August 12, D + 26 days
  Phytotoxicity: 2.0 B
TH241 tobacco; August 21, after a third application
  symptoms of phytotoxicity: symptoms of phytotoxicity were still more pronounced
TH241 tobacco; July 26, D + 9 days
  Phytotoxicity: 1.6 C
[2]
  day until which shoot length was the same as the standard treatment: 27 days
